Measurements taken from patent US20060183754A1, “Amide bridged piphenyl or biazaphenyl derivatives” (priority 2005, published 2006).

Tests used:
PPARα = molecular target: T1, PPARα (Homo sapiens, UniProt Q07869); test: PPARα radioligand binding assay (SPA, GST-PPARα-LBD)
T1 construct: PPARα (aa 167 to 469); made in house; host or cells: E. coli BL21 (pLysS)
T1 sequence (Q07869 167-468 limits assumed): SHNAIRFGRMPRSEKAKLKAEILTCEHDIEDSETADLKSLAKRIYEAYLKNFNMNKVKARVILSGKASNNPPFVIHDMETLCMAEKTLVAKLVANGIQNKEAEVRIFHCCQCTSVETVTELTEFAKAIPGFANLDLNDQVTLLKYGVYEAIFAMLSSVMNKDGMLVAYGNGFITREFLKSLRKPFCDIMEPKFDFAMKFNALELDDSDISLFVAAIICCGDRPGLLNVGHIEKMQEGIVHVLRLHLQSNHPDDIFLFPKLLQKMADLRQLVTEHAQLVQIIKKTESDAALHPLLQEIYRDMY
Description: (§1) Background information on the performed assays can be found in: Nichols J S et al. “Development of a scintillation proximity assay for peroxisome proliferator-activated receptor gamma ligand binding domain”, (1998) Anal. Biochem. 257: 112-119.
(§2) Full-length cDNA clones for humans PPARδ and PPARα and mouse PPARγ were obtained by RT-PCR from human adipose and mouse liver cRNA, respectively, cloned into plasmid vectors and verified by DNA sequencing. Bacterial and mammalian expression vectors were constructed to produce glutathione-s-transferase (GST) and Gal4 DNA binding domain proteins fused to the ligand binding domains (LBD) of PPARδ (aa 139 to 442), PPARγ (aa 174 to 476) and PPARα (aa 167 to 469). To accomplish this, the portions of the cloned sequences encoding the LBDs were amplified from the full-length clones by PCR and then subcloned into the plasmid vectors. Final clones were verified by DNA sequence analysis.
(§3) Induction, expression, and purification of GST-LBD fusion proteins were performed in E. coli strain BL21 (pLysS) cells by standard methods (Ref: Current Protocols in Molecular Biology, Wiley Press, edited by Ausubel et al.).
(§4) PPARα receptor binding was assayed in TKE50 (50 mM Tris-HCl, pH 8, 50 mM KCl, 2 mM EDTA, 0.1 mg/ml fatty acid-free BSA and 10 mM DTT). For each 96 well reaction an 140 ng equivalent of GST-PPARα-LBD fusion protein was bound to 10 μg SPA beads (PharmaciaAmersham) in a final volume of 50 μl by shaking. The resulting slurry was incubated for 1 h at RT and centrifuged for 2 min at 1300 g. The supernatant containing unbound protein was removed and the semidry pellet containing the receptor-coated beads was resolved in 50 μl of TKE. […] All binding assays were performed in 96 well plates and the amount of bound ligand measured on a Packard TopCount using OptiPlates (Packard). Nonspecific binding was determined in the presence of 10^−4 M unlabelled compound. […]

PPARδ = molecular target: T2, PPARδ (Homo sapiens, UniProt Q03181); test: PPARδ radioligand binding assay (SPA, GST-PPARδ-LBD)
T2 construct: PPARδ (aa 139 to 442); made in house; host or cells: E. coli BL21 (pLysS)
T2 sequence (Q03181 139-441 limits assumed): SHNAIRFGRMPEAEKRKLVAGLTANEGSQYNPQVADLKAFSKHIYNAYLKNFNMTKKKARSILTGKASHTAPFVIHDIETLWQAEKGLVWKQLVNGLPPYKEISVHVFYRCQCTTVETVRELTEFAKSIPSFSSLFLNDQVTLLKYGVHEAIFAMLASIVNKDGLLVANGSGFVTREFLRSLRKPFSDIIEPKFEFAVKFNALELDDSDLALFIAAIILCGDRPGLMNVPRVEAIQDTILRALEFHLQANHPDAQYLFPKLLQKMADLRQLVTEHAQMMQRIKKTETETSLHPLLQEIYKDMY
Description: as §1, §2, §3
PPARδ receptor binding was assayed in HNM10 (50 mM Hepes, pH 7.4, 10 mM NaCl, 5 mM MgCl2, 0.15 mg/ml fatty acid-free BSA and 15 mM DTT). For each 96 well reaction a 500 ng equivalent of GST-PPARδ-LBD fusion protein and radioligand, e.g. 20000 dpm {2-methyl-4-[4-methyl-2-(4-trifluoromethyl-phenyl)-thiazol-5-yl-ditritiomethylsulfanyl]-phenoxy}-acetic acid, was bound to 10 μg SPA beads (PharmaciaAmersham) in a final volume of 50 μl by shaking. The resulting slurry was incubated for 1 h at RT and centrifuged for 2 min at 1300 g. […] Radioligand was added and the reaction incubated at RT for 1 h and scintillation proximity counting performed in the presence of test compounds was determined. All binding assays were performed in 96 well plates and the amount of bound ligand was measured on a Packard TopCount using OptiPlates (Packard). […]

PPARγ = molecular target: T3, PPARγ (Mus musculus, UniProt P37238); test: PPARγ radioligand binding assay (SPA, GST-PPARγ-LBD)
T3 construct: PPARγ (aa 174 to 476); made in house; host or cells: E. coli BL21 (pLysS)
T3 sequence (P37238 204-505): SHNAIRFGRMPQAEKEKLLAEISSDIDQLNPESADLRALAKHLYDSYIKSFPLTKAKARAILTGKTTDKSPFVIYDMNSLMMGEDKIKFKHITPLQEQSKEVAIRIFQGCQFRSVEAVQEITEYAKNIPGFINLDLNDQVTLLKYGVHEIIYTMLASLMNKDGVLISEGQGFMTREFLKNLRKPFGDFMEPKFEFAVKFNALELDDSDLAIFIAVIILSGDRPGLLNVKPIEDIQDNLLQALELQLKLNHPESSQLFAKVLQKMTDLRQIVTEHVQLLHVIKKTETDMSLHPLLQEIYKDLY
Description: as §1, §2, §3
as §4, with “PPARγ” for “PPARα”, “GST-PPARγ-LBD” for “GST-PPARα-LBD”, “ul” for “μl”

Row | Compound | IC50 (PPARα) [µM] | IC50 (PPARδ) [µM] | IC50 (PPARγ) [µM]
1 | Cc1cc(OC(C)C(=O)Nc2cccc(-c3ccc(C(F)(F)F)cc3)c2)ccc1OC(C)(C)C(=O)O (racemic) [Example 09, [rac]-2-Methyl-2-{2-methyl-4-[1-(4′-trifluoromethyl-biphenyl-3-ylcarbamoyl)-ethoxy)-phenoxy}-propionic acid] | 0.42 | 0.58 | > 10
2 | CC(C)(Oc1ccc(CCCC(=O)Nc2cnc(-c3ccc(C(F)(F)F)cc3)nc2C2CC2)cc1)C(=O)O [Example 16, 2-(4-{3-[4-Cyclopropyl-2-(4-trifluoromethyl-phenyl)-pyrimidin-5-ylcarbamoyl]-propyl}-phenoxy)-2-methyl-propionic acid] | 0.008 | > 10 | > 10
3 | Cc1cc(OCCNC(=O)c2cnc(-c3ccc(C(F)(F)F)cc3)nc2C2CC2)ccc1OC(C)(C)C(=O)O [Example 20, 2-[4-(2-{[4-Cyclopropyl-2-(4-trifluoromethyl-phenyl)-pyrimidine-5-carbonyl]-amino}-ethoxy)-2-methyl-phenoxy]-2-methyl-propionic acid] | 0.024 | 0.94 | 1.08
